This test has as its system L1210 leukemia ip in BDF1 mice, survival T/C. Description: NCI In Vivo Anticancer Drug Screen. Data for tumor model L1210 Leukemia (intraperitoneal) in B6D2F1 (BDF1) mice. As to conditions: endpoint: mean survival time, higher = longer survival. Summed up: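 Each compound was tested against a transplantable tumor grown in mice. The endpoint was survival, with treated animals benchmarked against vehicle controls as a simple ratio.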

Where [1] appears, read: dose: 100.0 mg/kg/injection, schedule: Q01DX009 (ip), vehicle: saline.
Setting [2] is: dose: 100.0 mg/kg/injection, schedule: Q04DX003 (ip), vehicle: saline.
[3] abbreviates: dose: 200.0 mg/kg/injection, schedule: Q01DX009 (ip), vehicle: saline.
Setting [4] is: dose: 200.0 mg/kg/injection, schedule: Q04DX003 (ip), vehicle: saline.
[5] abbreviates: dose: 12.5 mg/kg/injection, schedule: Q01DX009 (ip), vehicle: Klucel (hydroxypropylcellulose) (HPC).
[6] abbreviates: dose: 25.0 mg/kg/injection, schedule: Q01DX009 (ip), vehicle: Klucel (hydroxypropylcellulose) (HPC).
Setting [7] is: dose: 50.0 mg/kg/injection, schedule: Q01DX009 (ip), vehicle: Klucel (hydroxypropylcellulose) (HPC).
The mark [8] stands for this setting: dose: 100.0 mg/kg/injection, schedule: Q01DX009 (ip), vehicle: saline with Tween-80.
[9] abbreviates: dose: 100.0 mg/kg/injection, schedule: Q04DX003 (ip), vehicle: saline with Tween-80.
Where [10] appears, read: dose: 200.0 mg/kg/injection, schedule: Q01DX009 (ip), vehicle: saline with Tween-80.
The mark [11] stands for this setting: dose: 200.0 mg/kg/injection, schedule: Q04DX003 (ip), vehicle: saline with Tween-80.
Setting [12] is: dose: 400.0 mg/kg/injection, schedule: Q04DX003 (ip), vehicle: saline with Tween-80.
Where [13] appears, read: dose: 100.0 mg/kg/injection, schedule: Q01DX001 (ip), vehicle: Klucel (hydroxypropylcellulose) (HPC).
The mark [14] stands for this setting: dose: 200.0 mg/kg/injection, schedule: Q01DX001 (ip), vehicle: Klucel (hydroxypropylcellulose) (HPC).
Where [15] appears, read: dose: 50.0 mg/kg/injection, schedule: Q04DX003 (ip), vehicle: saline.
The mark [16] stands for this setting: dose: 100.0 mg/kg/injection, schedule: Q01DX009 (ip), vehicle: Klucel (hydroxypropylcellulose) (HPC).
Where [17] appears, read: dose: 200.0 mg/kg/injection, schedule: Q01DX009 (ip), vehicle: Klucel (hydroxypropylcellulose) (HPC).
The mark [18] stands for this setting: dose: 200.0 mg/kg/injection, schedule: Q04DX003 (ip), vehicle: Klucel (hydroxypropylcellulose) (HPC).
Where [19] appears, read: dose: 400.0 mg/kg/injection, schedule: Q01DX009 (ip), vehicle: Klucel (hydroxypropylcellulose) (HPC).
Setting [20] is: dose: 400.0 mg/kg/injection, schedule: Q04DX003 (ip), vehicle: Klucel (hydroxypropylcellulose) (HPC).
The mark [21] stands for this setting: dose: 100.0 mg/kg/injection, schedule: Q01DX001 (ip), vehicle: carboxymethylcellulose (CMC).
Setting [22] is: dose: 200.0 mg/kg/injection, schedule: Q01DX001 (ip), vehicle: carboxymethylcellulose (CMC).
The mark [23] stands for this setting: dose: 400.0 mg/kg/injection, schedule: Q01DX001 (ip), vehicle: carboxymethylcellulose (CMC).
[24] abbreviates: dose: 100.0 mg/kg/injection, schedule: Q04DX002 (ip), vehicle: Klucel (hydroxypropylcellulose) (HPC).
Setting [25] is: dose: 200.0 mg/kg/injection, schedule: Q04DX002 (ip), vehicle: Klucel (hydroxypropylcellulose) (HPC).

Several values for one entry are separate records, joined by “and”; a condition that tells them apart may be missing. Equal entries are not always repeated. Inconclusive results and toxic doses are left out.

In the case of `CC(C)(O)C(O)C(=O)O` (configuration not stated), the T/C runs as follows: under setting [1], 92 % of control; under setting [2], 106 % of control; under setting [3], 89 % of control; under setting [4], 104 % of control; (dose: 400.0 mg/kg/injection, schedule: Q04DX003 (ip), vehicle: saline) 97 % of control.

With `COC1/C=C/OC2(C)Oc3c(C)c(O)c4c(O)c(c(/C=N/N5CCN(Cc6ccccc6)CC5)c(O)c4c3C2=O)NC(=O)C(C)=C/C=C/C(C)C(O)C(C)C(O)C(C)C(OC(C)=O)C1C` (configuration not stated), the T/C by setting is: (dose: 3.13 mg/kg/injection, schedule: Q01DX009 (ip), vehicle: Klucel (hydroxypropylcellulose) (HPC)) 91 % of control; (dose: 6.25 mg/kg/injection, schedule: Q01DX009 (ip), vehicle: Klucel (hydroxypropylcellulose) (HPC)) 100 % of control; under setting [5], 91 % of control; under setting [6], 97 % of control; under setting [7], 95 % of control and 110 % of control.

As for `CC(C)c1cc(C(C)C)c(C(=O)Oc2c(Br)cc(Br)cc2Br)c(C(C)C)c1`, the T/C under setting [8] is 95 % of control; the T/C under setting [9] was 98 % of control; the T/C under setting [10] was 92 % of control; the T/C under setting [11] is 93 % of control; the T/C under setting [12] is 90 % of control.

In the case of `Clc1ccc2nsnc2c1`, the T/C reads like this: under setting [13], 105 % of control; under setting [14], 114 % of control.

Regarding `C/C=C1/C[N+]2(C)CCC34C(=C(C(=O)OC)C1CC32)Nc1ccc(O)cc14` (configuration not stated), the T/C was 97 % of control (dose: 6.25 mg/kg/injection, schedule: Q01DX001 (ip), vehicle: saline with Tween-80); 102 % of control (dose: 12.5 mg/kg/injection, schedule: Q01DX001 (ip), vehicle: saline with Tween-80); 96 % of control (dose: 25.0 mg/kg/injection, schedule: Q01DX001 (ip), vehicle: saline with Tween-80).

Consider `CN(C)c1ccc([N+](=O)[O-])cc1[N+](=O)[O-]`, for which the T/C (dose: 100.0 mg/kg/injection, schedule: Q01DX001 (ip), vehicle: other) is 111 % of control and the T/C (dose: 200.0 mg/kg/injection, schedule: Q01DX001 (ip), vehicle: other) is 101 % of control.

For `C=CC(OC)OC`, the T/C is 95 % of control (dose: 25.0 mg/kg/injection, schedule: Q04DX003 (ip), vehicle: saline) and 93 % of control under setting [15].

For `O=NN(CCCl)C(=O)NC1c2cc(Cl)ccc2-c2c(Cl)cc(Cl)cc21` (configuration not stated), the T/C by setting is: (dose: 6.6 mg/kg/injection, schedule: Q04DX003 (ip), vehicle: Klucel (hydroxypropylcellulose) (HPC)) 103 % of control; (dose: 9.9 mg/kg/injection, schedule: Q04DX003 (ip), vehicle: Klucel (hydroxypropylcellulose) (HPC)) 116 % of control; under setting [5], 115 % of control; (dose: 20.0 mg/kg/injection, schedule: Q04DX003 (ip), vehicle: Klucel (hydroxypropylcellulose) (HPC)) 102 % of control; under setting [6], 124 % of control; (dose: 40.0 mg/kg/injection, schedule: Q04DX003 (ip), vehicle: Klucel (hydroxypropylcellulose) (HPC)) 119 % of control. The T/C runs as follows: under setting [7], 232 % of control; under setting [16], 252 % of control; (dose: 115.0 mg/kg/injection, schedule: Q04DX003 (ip), vehicle: Klucel (hydroxypropylcellulose) (HPC)) 154 % of control; under setting [14], 153 % of control; under setting [17], 267 % of control; under setting [18], 174 % of control. Further, the T/C (dose: 400.0 mg/kg/injection, schedule: Q01DX001 (ip), vehicle: Klucel (hydroxypropylcellulose) (HPC)) was 170 % of control; the T/C under setting [19] was 273 % of control; the T/C under setting [20] is 157 % of control and 261 % of control.

Turning to `COC(=O)c1c[nH]c(=O)cc1O`, the T/C by setting is: (dose: 100.0 mg/kg/injection, schedule: Q01DX001 (ip), vehicle: saline) 101 % of control; (dose: 200.0 mg/kg/injection, schedule: Q01DX001 (ip), vehicle: saline) 98 % of control; (dose: 400.0 mg/kg/injection, schedule: Q01DX001 (ip), vehicle: saline) 98 % of control.

As for `CC(=O)C(C(C)=O)C(c1ccccc1)C(C(C)=O)C(C)=O`, the T/C reads like this: under setting [16], 94 % of control; under setting [17], 91 % of control.

For `COc1ccc(C2=CCCC2)cc1`, the T/C is, setting by setting: under setting [21], 91 % of control; under setting [16], 89 % of control; (dose: 100.0 mg/kg/injection, schedule: Q04DX003 (ip), vehicle: Klucel (hydroxypropylcellulose) (HPC)) 96 % of control; under setting [22], 94 % of control; under setting [17], 102 % of control; under setting [18], 101 % of control. Moreover, the T/C is 96 % of control under setting [23], 89 % of control under setting [19] and 102 % of control under setting [20].

Regarding `COc1ccc(C(=O)C(=O)c2ccc(OC)cc2)cc1`, the T/C was 98 % of control under setting [24]; 98 % of control under setting [25]; 95 % of control (dose: 400.0 mg/kg/injection, schedule: Q04DX002 (ip), vehicle: Klucel (hydroxypropylcellulose) (HPC)).

Turning to `OCCOc1c(Cl)c(C(Cl)(Cl)Cl)nc2ccccc12`, the T/C is, setting by setting: (dose: 25.0 mg/kg/injection, schedule: Q01DX001 (ip), vehicle: Klucel (hydroxypropylcellulose) (HPC)) 103 % of control; (dose: 50.0 mg/kg/injection, schedule: Q01DX001 (ip), vehicle: Klucel (hydroxypropylcellulose) (HPC)) 106 % of control; under setting [13], 106 % of control.

As for `CCCCN=Cc1ccccc1`, the T/C by setting is: under setting [8], 114 % of control; under setting [9], 96 % of control; under setting [10], 90 % of control; under setting [11], 87 % of control; under setting [12], 103 % of control.

Consider `CCN(CC)CC(=O)NCC(CC)(CCN1CCCCC1)c1cccc2ccccc12` (configuration not stated), for which the T/C reads like this: under setting [15], 92 % of control; under setting [1], 114 % of control; under setting [2], 102 % of control; under setting [3], 102 % of control; under setting [4], 97 % of control.

Turning to `CC(=O)c1cccc(NC(=O)Oc2ccc(F)cc2Cl)c1`, the T/C reads like this: under setting [16], 97 % of control; under setting [17], 108 % of control.

Consider `CCC1CN1P1(=O)OCC(C)(N)CO1` (configuration not stated), for which the T/C runs as follows: under setting [21], 104 % of control; under setting [22], 101 % of control; under setting [23], 101 % of control.

As to `Cc1ccc(S(=O)(=O)Nc2ccccc2SSc2ccccc2NS(=O)(=O)c2ccc(C)cc2)cc1`, the T/C was 97 % of control under setting [8]; 101 % of control under setting [9]; 97 % of control under setting [10]; 97 % of control under setting [11]; 90 % of control (dose: 400.0 mg/kg/injection, schedule: Q01DX009 (ip), vehicle: saline with Tween-80); 95 % of control under setting [12].

For the compound `Cc1c(Br)c(C)c(Br)c(OCC(=O)O)c1Br`, the T/C is 98 % of control under setting [24] and 109 % of control under setting [25].

For `NC(=S)N/N=C/c1ccc(C(F)(F)F)cn1`, the T/C reads like this: (dose: 13.3 mg/kg/injection, schedule: Q04DX003 (ip), vehicle: saline with Tween-80) 108 % of control; (dose: 20.0 mg/kg/injection, schedule: Q04DX003 (ip), vehicle: saline with Tween-80) 103 % of control; (dose: 30.0 mg/kg/injection, schedule: Q04DX003 (ip), vehicle: saline with Tween-80) 113 % of control; (dose: 45.0 mg/kg/injection, schedule: Q04DX003 (ip), vehicle: saline with Tween-80) 112 % of control; (dose: 67.5 mg/kg/injection, schedule: Q04DX003 (ip), vehicle: saline with Tween-80) 111 % of control.

(Values after PubChem BioAssay AID248 (DTP/NCI, 2004).)
